# Earlier results as cited in US20070117764A1, “Compositions comprising macrolide t-cell immunomodulators or immunosuppressants in combination with antibacterials” (priority 2003, published 2007).
# System: allogeneic kidney transplantation
# Details: rat, oral administration, suppression of systemic immune response
smiles,measurement,value
C=CC[C@@H]1/C=C(\C)C[C@H](C)C[C@H](OC)[C@H]2O[C@@](O)(C(=O)C(=O)N3CCCC[C@H]3C(=O)O[C@H](/C(C)=C/[C@@H]3CC[C@@H](O)[C@H](OC)C3)[C@H](C)[C@@H](O)CC1=O)[C@H](C)C[C@@H]2OC [tacrolimus],minimum effective dose (MED),14 mg/kg
